Experimental data taken from patent US9453842B2, “Inhibition of peroxidase enzymatic activity” (Roche Molecular Systems, Inc., priority 2006, dated 2016).

Columns and labels:
[1] = system: horseradish peroxidase (HRP); experiment: Inhibition of ABTS turnover catalyzed by a high amount of HRP (sandwich ELISA, CAM-induced Jurkat cell lysate); format: biochemical, horseradish (Armoracia rusticana)
Procedure: FIG. 2, A and B: inhibition of ABTS turnover catalyzed by a high amount of HRP detection of a high amount of mono- and oligosomes in Jurkat cells; further details are given in Example 1. All other designations are the same as in FIG. 1. Jurkat cells were cultured and subsequently divided into two culture dishes. In one dish the cells were treated with 1 μg/ml CAM (Camptothecin) to induce apoptosis, thereby leading to the formation of mono and oligonucleosomes, the target antigen. After an incubation period of 4 hours the cells of both dishes were harvested separately by centrifugation, lysed by the detergent contained in the Cell Death Detection ELISA Plus (Roche Diagnostics GmbH, Mannheim, Germany; Catalog No. 1920685), and frozen. The mono and oligonucleosomes consisting of DNA and histones H2A, H2B, H3 and H4 were detected in thawed cell homogenate by way of a sandwich ELISA. Antigen was captured with a first monoclonal antibody against histone from the Cell Death Detection ELISA Plus kit. The antibody was coated onto the walls of a 96-well microplate. The detection antibody was a DNA-specific polyclonal antibody conjugated with horseradish peroxidase. Non-induced and CAM-induced Jurkat cells yielded low and high amounts of target antigen, thereby leading to low and high absolute amounts of horseradish peroxidase enzymatic activity in the respective wells. […]

[2] = system: horseradish peroxidase (HRP); experiment: Inhibition of ABTS turnover catalyzed by a low amount of HRP (sandwich ELISA, non-induced Jurkat cell lysate); format: biochemical, horseradish (Armoracia rusticana); conditions: SDS 1% or 5%, high concentrations of oxalic acid or sulfuric acid
Procedure: FIG. 1, A and B: inhibition of ABTS turnover catalyzed by a low amount of HRP (detection of a low amount of mono- and oligosomes in Jurkat cells; further details are given in Example 1). The ordinate indicates absorbance. Groups of bars represent comparative measurements at time points after the addition of stop reagents as indicated: (‡)—control, ABTS solution incubated without HRP, no stop reagent added; (a) to (k)—ABTS solution incubated with HRP and subsequently mixed with stop reagent as indicated: […] Jurkat cells were cultured and subsequently divided into two culture dishes. In one dish the cells were treated with 1 μg/ml CAM (Camptothecin) to induce apoptosis, thereby leading to the formation of mono and oligonucleosomes, the target antigen. After an incubation period of 4 hours the cells of both dishes were harvested separately by centrifugation, lysed by the detergent contained in the Cell Death Detection ELISA Plus (Roche Diagnostics GmbH, Mannheim, Germany; Catalog No. 1920685), and frozen. The mono and oligonucleosomes consisting of DNA and histones H2A, H2B, H3 and H4 were detected in thawed cell homogenate by way of a sandwich ELISA. Antigen was captured with a first monoclonal antibody against histone from the Cell Death Detection ELISA Plus kit. The antibody was coated onto the walls of a 96-well microplate. The detection antibody was a DNA-specific polyclonal antibody conjugated with horseradish peroxidase. Non-induced and CAM-induced Jurkat cells yielded low and high amounts of target antigen, thereby leading to low and high absolute amounts of horseradish peroxidase enzymatic activity in the respective wells. Into each well of the 96-well microplate an aliquot of 100 μl of ABTS Solution (Roche Diagnostics GmbH, Mannheim, Germany; Roche Applied Science, product no. 11684302001) was added. After an incubation for 8 minutes at room temperature, 100 μl of either distilled water or a stop reagent as indicated in the legend to FIG. 1 was added.

[3] = molecular target: T1, HRP (Armoracia rusticana, UniProt P00433); experiment: Inhibition of 1 mU of HRP activity using heavy metal salts and other compounds as stop reagents (ABTS, 96-well plate); conditions: 1 mU HRP; for Absorbance at 405 nm: higher concentration of Table 1
T1 sequence (P00433 31-338): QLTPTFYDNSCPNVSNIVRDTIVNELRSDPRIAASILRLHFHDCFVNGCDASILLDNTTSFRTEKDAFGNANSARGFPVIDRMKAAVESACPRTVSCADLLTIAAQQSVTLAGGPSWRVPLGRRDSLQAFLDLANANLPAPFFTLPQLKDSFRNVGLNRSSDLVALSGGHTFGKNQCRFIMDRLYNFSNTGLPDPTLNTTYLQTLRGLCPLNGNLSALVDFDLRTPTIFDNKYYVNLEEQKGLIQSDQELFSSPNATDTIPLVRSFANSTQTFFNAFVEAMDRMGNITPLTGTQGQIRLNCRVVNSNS

[4] = system: HRP; experiment: Inhibition of 1 mU of HRP activity using acidified SDS solution as stop reagent (ABTS); format: biochemical, horseradish (Armoracia rusticana); conditions: acidification of the reaction mixture to pH about 2.5 to 4.2; SDS final concentration between 0.25% and 2.5% weight by volume
Procedure: A solution of 5% [w/v] sodium dodecyl sulfate acidified with 0.25 M hydrochloric acid was used as a stop reagent to inhibit 1 mU peroxidase enzymatic activity of HRP. […] 100 μl of stop reagent were added.
Another experiment was performed in which two different SDS concentrations, 5% and 0.5% [w/v] in an acidified solution were compared.

[5] = Table 2b, 6 min, stop reagent added after 8 min incubation
[6] = Table 2b, 9 min, stop reagent added after 8 min
[7] = Table 2b, 15 min, stop reagent added after 8 min
[8] = Table 2b, 30 min, stop reagent added after 8 min
[9] = Table 2b, 45 min, stop reagent added after 8 min
[10] = Table 2b, 60 min, stop reagent added after 8 min
[11] = Table 2b, 180 min, stop reagent added after 8 min

SMILES	Inhibition of the reaction (FIG. 1) [2]	Decoloration of the dye ([3]; ABTS)	Absorbance at 405 nm [3, 5]	Absorbance at 405 nm [3, 6]	Absorbance at 405 nm [3, 7]	Absorbance at 405 nm [3, 8]	Absorbance at 405 nm [3, 9]	Absorbance at 405 nm [3, 10]	Absorbance at 405 nm [3, 11]	other results
O=C(O)C(=O)O [oxalic acid]	complete inhibition	–	–	–	–	–	–	–	–	Inhibition of the high amount of HRP activity (FIG. 2) [1]: not able to inhibit completely
[Na+].[OH-] [(xiii), NaOH]	–	decoloration of the dye	–	–	–	–	–	–	–	Absorbance at 405 nm ([3]; Table 2a, 6 min, stop reagent added after 8 min incubation): 1.036; Absorbance at 405 nm ([3]; Table 2a, 9 min, stop reagent added after 8 min): 0.878; Absorbance at 405 nm ([3]; Table 2a, 15 min, stop reagent added after 8 min): 0.027; Absorbance at 405 nm ([3]; Table 2a, 30 min, stop reagent added after 8 min): 0.027; Absorbance at 405 nm ([3]; Table 2a, 45 min, stop reagent added after 8 min): 0.027; Absorbance at 405 nm ([3]; Table 2a, 60 min, stop reagent added after 8 min): 0.027; Absorbance at 405 nm ([3]; Table 2a, 180 min, stop reagent added after 8 min): 0.026
O=S(=O)(O)O [sulfuric acid]	complete inhibition	–	–	–	–	–	–	–	–	–
NC(=O)C(=O)[O-].[Na+] [(xi), Sodium Oxamate]	–	–	1.182	1.776	2.525	3.091	3.097	3.095	2.865	–
[F-].[Na+] [(viii), NaF]	–	–	1.176	1.343	1.424	1.572	1.721	1.818	2.107	Inhibition of HRP (in words) ([3]; ABTS): affected inhibition, however only partially
[Cl][Ni][Cl] [(ix), Nickel (II) chloride]	–	–	1.175	2.241	2.999	3.719	3.999	3.715	3.999	–
CCCCCCCCCCCCOS(=O)(=O)[O-].[Na+] [SDS, sodium dodecyl sulfate]	complete inhibition	–	–	–	–	–	–	–	–	Inhibition of the high amount of HRP activity (FIG. 2) [1]: not able to inhibit completely; Inhibiting peroxidase enzymatic activity (in words) [4]: very effective
N#C[S-].[K+] [(xii), KSCN]	–	decoloration of the dye	1.179	1.207	1.290	1.201	1.086	0.989	0.849	–
[Na+].[Na+].[Na+].[O]=[V]([O-])([O-])[O-] [(vii), Sodium orthovanadate]	–	decoloration of the dye	1.173	0.115	0.096	0.089	0.088	0.092	0.100	–
